Laboratory results as given in patent publication US10035801B2, “Pyrazolo compounds and uses thereof” (CONSTELLATION PHARMACEUTICALS, INC., priority 2013, dated 2018).

These compounds were tested against T1, KDM5A (Homo sapiens, UniProt P29375) (assay: KDM5 enzyme assay, KDM5A HTRF (Example 463)). Conditions: not given.
T1 construct: Full length KDM5A enzyme was expressed and purified inhouse; made in house
Format: biochemical

T1 sequence (P29375 whole entry): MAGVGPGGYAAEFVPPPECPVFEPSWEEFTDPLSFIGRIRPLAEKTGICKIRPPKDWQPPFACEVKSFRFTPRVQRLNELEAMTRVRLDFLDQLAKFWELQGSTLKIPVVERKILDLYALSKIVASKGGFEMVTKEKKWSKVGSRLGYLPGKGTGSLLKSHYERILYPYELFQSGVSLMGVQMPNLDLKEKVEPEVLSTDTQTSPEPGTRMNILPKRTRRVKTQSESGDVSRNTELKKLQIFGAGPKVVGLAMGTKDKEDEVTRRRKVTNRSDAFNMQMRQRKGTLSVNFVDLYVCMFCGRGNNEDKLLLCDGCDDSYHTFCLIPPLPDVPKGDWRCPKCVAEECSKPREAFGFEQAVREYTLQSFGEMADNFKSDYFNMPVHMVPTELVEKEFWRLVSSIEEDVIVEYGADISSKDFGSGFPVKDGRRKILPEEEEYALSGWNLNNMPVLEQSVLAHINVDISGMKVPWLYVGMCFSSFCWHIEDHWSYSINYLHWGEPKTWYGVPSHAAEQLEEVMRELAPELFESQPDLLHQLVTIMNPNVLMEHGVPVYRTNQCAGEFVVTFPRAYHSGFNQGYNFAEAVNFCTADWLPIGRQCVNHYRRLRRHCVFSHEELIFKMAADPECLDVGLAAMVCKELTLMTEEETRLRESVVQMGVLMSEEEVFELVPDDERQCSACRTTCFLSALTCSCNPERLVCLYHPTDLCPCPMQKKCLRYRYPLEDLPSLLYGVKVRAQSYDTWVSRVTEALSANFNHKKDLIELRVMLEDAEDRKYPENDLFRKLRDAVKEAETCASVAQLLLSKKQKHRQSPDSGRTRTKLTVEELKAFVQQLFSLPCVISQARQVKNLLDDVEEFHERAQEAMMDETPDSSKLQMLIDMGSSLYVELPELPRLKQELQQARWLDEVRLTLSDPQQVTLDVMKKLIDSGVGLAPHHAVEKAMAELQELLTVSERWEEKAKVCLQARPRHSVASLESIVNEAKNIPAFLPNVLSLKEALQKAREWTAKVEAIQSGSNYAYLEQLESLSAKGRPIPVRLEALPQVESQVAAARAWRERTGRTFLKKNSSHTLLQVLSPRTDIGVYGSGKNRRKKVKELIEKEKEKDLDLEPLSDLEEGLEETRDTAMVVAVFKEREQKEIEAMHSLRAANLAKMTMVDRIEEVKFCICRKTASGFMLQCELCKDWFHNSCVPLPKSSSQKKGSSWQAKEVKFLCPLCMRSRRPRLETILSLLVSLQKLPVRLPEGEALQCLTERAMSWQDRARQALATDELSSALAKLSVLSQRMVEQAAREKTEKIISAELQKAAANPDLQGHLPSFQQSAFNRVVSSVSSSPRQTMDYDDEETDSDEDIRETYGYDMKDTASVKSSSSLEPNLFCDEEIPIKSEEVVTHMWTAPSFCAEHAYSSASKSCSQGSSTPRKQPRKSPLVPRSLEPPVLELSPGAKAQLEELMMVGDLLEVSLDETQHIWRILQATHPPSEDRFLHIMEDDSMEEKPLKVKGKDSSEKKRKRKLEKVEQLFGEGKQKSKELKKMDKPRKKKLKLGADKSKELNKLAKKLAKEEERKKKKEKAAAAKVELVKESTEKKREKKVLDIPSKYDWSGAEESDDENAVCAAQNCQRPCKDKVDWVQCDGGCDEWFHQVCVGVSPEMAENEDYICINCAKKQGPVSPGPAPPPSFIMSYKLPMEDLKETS

Structure (SMILES) | IC50
CC(C)c1c(-c2ccc(OC(F)(F)F)cc2)[nH]c2c(C#N)cnn2c1=O [Example 257] | 37 nM
COc1cc(-c2[nH]c3c(C#N)cnn3c(=O)c2C(C)C)ccn1 [Example 277] | 32 nM

Same assay, conditions: compounds of Examples 1-432; read-out: Example 463 Assay KDM5A HTRF IC50

Structure (SMILES) | IC50
Cn1c(-c2ccccc2)c(-c2ccncc2)c(=O)n2ncc(C#N)c12 [Example 229] | 9600 nM
C/C=C/Cc1c(-c2ccccc2)[nH]c2c(C#N)cnn2c1=O [Example 231] | 170 nM
CC(=O)N1CC=C(c2[nH]c3c(C#N)cnn3c(=O)c2C(C)C)CC1 [Example 237] | 78 nM
CCC(=O)N1CC=C(c2[nH]c3c(C#N)cnn3c(=O)c2C(C)C)CC1 [Example 238] | 49 nM
CC(C)c1c(C2=CCN(C)CC2)[nH]c2c(C#N)cnn2c1=O [Example 240] | 50 nM
CC(=O)NCCn1cc(-c2[nH]c3c(C#N)cnn3c(=O)c2C(C)C)cn1 [Example 242] | 27 nM
CCC(C)(C)n1cc(-c2[nH]c3c(C#N)cnn3c(=O)c2C(C)C)cn1 [Example 245] | 46 nM
CC(C)c1c(-c2cccc(CCN(C)C)c2)[nH]c2c(C#N)cnn2c1=O [Example 248] | 69 nM
CC(CO)c1c(-c2ccccc2)[nH]c2c(C#N)cnn2c1=O (centres unmarked) [Example 249] | 30 nM
CC(=O)NCCCCc1c(-c2ccccc2)[nH]c2c(C#N)cnn2c1=O [Example 250] | 5700 nM
CC(=O)NCCCc1c(-c2ccccc2)[nH]c2c(C#N)cnn2c1=O [Example 251] | 8000 nM
N#Cc1cnn2c(=O)c(CCCCN)c(-c3ccccc3)[nH]c12 [Example 252] | 7630 nM
CC(C)c1c(-c2cnn(C3CCOCC3)c2)[nH]c2c(C#N)cnn2c1=O [Example 254] | 33 nM
COc1cc(-c2[nH]c3c(C#N)cnn3c(=O)c2C(C)C)ccc1C(F)(F)F [Example 255] | 35 nM
Cc1cc(-c2[nH]c3c(C#N)cnn3c(=O)c2C(C)C)ccc1OC(F)(F)F [Example 258] | 44 nM
CC(C)c1c(-c2ccc(C3CC3)c(C(F)(F)F)c2)[nH]c2c(C#N)cnn2c1=O [Example 259] | 43 nM
CC(C)c1c(-c2ccc3c(c2)CC(C)(C)O3)[nH]c2c(C#N)cnn2c1=O [Example 260] | 36 nM
COc1cc(OC)cc(-c2[nH]c3c(C#N)cnn3c(=O)c2C(C)C)c1 [Example 261] | 31 nM
CC(C)c1c(-c2ccc(-c3ccccc3)cc2)[nH]c2c(C#N)cnn2c1=O [Example 263] | 28 nM
CC(C)c1c(-c2cc(C(F)(F)F)cc(C(F)(F)F)c2)[nH]c2c(C#N)cnn2c1=O [Example 265] | 40 nM
COc1cc(F)cc(-c2[nH]c3c(C#N)cnn3c(=O)c2C(C)C)c1 [Example 266] | 29 nM
CC(C)c1c(-c2ccc(C(C)(C)O)cc2)[nH]c2c(C#N)cnn2c1=O [Example 274] | 73 nM
CC(C)c1c(-c2ccnc(C(F)(F)F)c2)[nH]c2c(C#N)cnn2c1=O [Example 275] | 34 nM

Structure (SMILES) | IC50
CC(C)c1c(-c2ccc(Oc3ccccc3)nc2)[nH]c2c(C#N)cnn2c1=O [Example 276] | 35 nM
Cc1nc(-c2ccccc2)sc1-c1[nH]c2c(C#N)cnn2c(=O)c1C(C)C [Example 278] | 76 nM
CCNC(=O)c1cccc(-c2[nH]c3c(C#N)cnn3c(=O)c2C(C)C)c1 [Example 281] | 32 nM
CC(C)c1c(-c2ccc(-c3ccccc3)nc2)[nH]c2c(C#N)cnn2c1=O [Example 283] | 37 nM
COCC(C)n1cc(-c2[nH]c3c(C#N)cnn3c(=O)c2C(C)C)cn1 (centres unmarked) [Example 286] | 30 nM
CC(=O)N1CCC=C(c2[nH]c3c(C#N)cnn3c(=O)c2C(C)C)C1 [Example 289] | 35 nM
CCC(=O)N1CCC=C(c2[nH]c3c(C#N)cnn3c(=O)c2C(C)C)C1 [Example 290] | 39 nM
CCC(=O)N1CC=C(c2[nH]c3c(C#N)cnn3c(=O)c2C(C)C)C1 [Example 291] | 55 nM
CC(C)c1c(C2=CCCNC2)[nH]c2c(C#N)cnn2c1=O [Example 294] | 62 nM
CC(C)c1c(C2=CCCN(C)C2)[nH]c2c(C#N)cnn2c1=O [Example 295] | 39 nM
C=CC(=O)N1CCC=C(c2[nH]c3c(C#N)cnn3c(=O)c2C(C)C)C1 [Example 296] | 47 nM
C=CC(=O)N1CC=C(c2[nH]c3c(C#N)cnn3c(=O)c2C(C)C)C1 [Example 297] | 28 nM
CC(C)c1c(-c2ccc(C(F)(F)F)c(C(F)(F)F)c2)[nH]c2c(C#N)cnn2c1=O [Example 301] | 170 nM
Cc1cc(-c2[nH]c3c(C#N)cnn3c(=O)c2C(C)C)ccc1C(F)(F)F [Example 302] | 52 nM
CC(C)c1c(-c2ccc(F)c(C(=O)NC3CCCCC3)c2)[nH]c2c(C#N)cnn2c1=O [Example 304] | 52 nM
CC(C)c1c(-c2ccc(N3CCOCC3)cc2)[nH]c2c(C#N)cnn2c1=O [Example 305] | 47 nM
CC(C)c1c(-c2ccc(N3CCN(C(=O)OC(C)(C)C)CC3)cc2)[nH]c2c(C#N)cnn2c1=O [Example 306] | 200 nM
Cc1cc(Cl)cc(-c2[nH]c3c(C#N)cnn3c(=O)c2C(C)C)c1 [Example 307] | 25 nM
CC(C)c1c(-c2ccc(NS(C)(=O)=O)cc2)[nH]c2c(C#N)cnn2c1=O [Example 309] | 37 nM
CC(C)c1c(-c2cccc(N3CCOCC3)c2)[nH]c2c(C#N)cnn2c1=O [Example 311] | 28 nM
CC(C)c1c(-c2ccc(Oc3ccccc3)cc2)[nH]c2c(C#N)cnn2c1=O [Example 312] | 28 nM
CCOc1cccc(-c2[nH]c3c(C#N)cnn3c(=O)c2C(C)C)c1 [Example 316] | 34 nM

Next, values leading:

IC50 | Structure (SMILES)
23 nM | CCc1c(-c2cccc(-c3cnn(C(C)C)c3)c2)[nH]c2c(C#N)cnn2c1=O [Example 228]
9 nM | CCc1c(-c2ccc(-c3ccccc3)cc2)[nH]c2c(C#N)cnn2c1=O [Example 230]
19 nM | CCc1c(-c2ccc(Nc3ccc(F)cc3)cc2)[nH]c2c(C#N)cnn2c1=O [Example 232]
20 nM | CCc1c(-c2cccc(NC(=O)OC(C)(C)C)c2)[nH]c2c(C#N)cnn2c1=O [Example 233]
15 nM | N#Cc1cnn2c(=O)c(I)c(-c3ccccc3)[nH]c12 [Example 234]
14 nM | C#CC(C)c1c(-c2ccccc2)[nH]c2c(C#N)cnn2c1=O (centres unmarked) [Example 235]
18 nM | CCC(C)c1c(-c2ccccc2)[nH]c2c(C#N)cnn2c1=O (centres unmarked) [Example 236]
21 nM | C=CC(=O)N1CC=C(c2[nH]c3c(C#N)cnn3c(=O)c2C(C)C)CC1 [Example 239]
13 nM | Cc1nc(Cn2cc(-c3[nH]c4c(C#N)cnn4c(=O)c3C(C)C)cn2)cs1 [Example 241]
20 nM | CC(C)c1c(-c2cc(Cl)cc(Cl)c2)[nH]c2c(C#N)cnn2c1=O [Example 243]
21 nM | CC(C)c1c(-c2ccc(S(C)(=O)=O)cc2F)[nH]c2c(C#N)cnn2c1=O [Example 244]
22 nM | CC(C)c1c(-c2ccc(F)c(Cl)c2)[nH]c2c(C#N)cnn2c1=O [Example 246]
15 nM | CC(C)c1c(-c2cccc(CCN3CCOCC3)c2)[nH]c2c(C#N)cnn2c1=O [Example 247]
13 nM | CC(C)c1c(-c2cnn(C(C)c3cscn3)c2)[nH]c2c(C#N)cnn2c1=O (centres unmarked) [Example 253]
15 nM | COC(=O)c1cc(-c2[nH]c3c(C#N)cnn3c(=O)c2C(C)C)ccc1Cl [Example 256]
21 nM | CC(C)c1c(-c2ccc(F)c(F)c2)[nH]c2c(C#N)cnn2c1=O [Example 262]
21 nM | CC(C)c1c(-c2cc(F)cc(Cl)c2)[nH]c2c(C#N)cnn2c1=O [Example 264]
9.8 nM | CC(C)c1c(-c2cccc(C(N)=O)c2)[nH]c2c(C#N)cnn2c1=O [Example 267]
23 nM | CC(C)c1c(-c2ccc(OCC3CC3)cc2)[nH]c2c(C#N)cnn2c1=O [Example 268]
19 nM | CC(C)c1c(-c2cc(F)cc(NC(=O)OCc3ccccc3)c2)[nH]c2c(C#N)cnn2c1=O [Example 269]

IC50 | Structure (SMILES)
13 nM | CC(C)c1c(-c2cccc(-n3cccn3)c2)[nH]c2c(C#N)cnn2c1=O [Example 270]
24 nM | CC(C)c1c(-c2cnn(C3CCCC3O)c2)[nH]c2c(C#N)cnn2c1=O (centres unmarked) [Example 271]
23 nM | CNS(=O)(=O)c1cccc(-c2[nH]c3c(C#N)cnn3c(=O)c2C(C)C)c1 [Example 273]
24 nM | CC(C)c1c(-c2cc(N)cc(C#N)c2)[nH]c2c(C#N)cnn2c1=O [Example 279]
15 nM | CC(C)c1c(-c2cnn(C3CCOC3)c2)[nH]c2c(C#N)cnn2c1=O (centres unmarked) [Example 280]
8 nM | CC(C)c1c(-c2cccc(CC(N)=O)c2)[nH]c2c(C#N)cnn2c1=O [Example 282]
23 nM | CC(C)c1c(-c2cnn(C3CCCOC3)c2)[nH]c2c(C#N)cnn2c1=O (centres unmarked) [Example 285]
22 nM | CCOCCn1cc(-c2[nH]c3c(C#N)cnn3c(=O)c2C(C)C)cn1 [Example 287]
12 nM | CC(=O)N1CC=C(c2[nH]c3c(C#N)cnn3c(=O)c2C(C)C)C1 [Example 288]
19 nM | CC(C)c1c(C2=CCNC2)[nH]c2c(C#N)cnn2c1=O [Example 293]
24 nM | Cc1cc(-c2[nH]c3c(C#N)cnn3c(=O)c2C(C)C)cc(C)c1Cl [Example 298]
25 nM | Cc1cc(-c2[nH]c3c(C#N)cnn3c(=O)c2C(C)C)ccc1C#N [Example 299]
18 nM | CC(C)c1c(-c2ccc3c(c2)CCC3=O)[nH]c2c(C#N)cnn2c1=O [Example 300]
15 nM | CC(C)c1c(-c2cnn(Cc3cccc4ccsc34)c2)[nH]c2c(C#N)cnn2c1=O [Example 303]
17 nM | CC(C)c1c(-c2cccc(S(C)(=O)=O)c2)[nH]c2c(C#N)cnn2c1=O [Example 308]
19 nM | CC(C)c1c(-c2ccc(CN3CCOCC3)cc2)[nH]c2c(C#N)cnn2c1=O [Example 310]
18 nM | C=CC(=O)NCCn1cc(-c2[nH]c3c(C#N)cnn3c(=O)c2C(C)C)cn1 [Example 313]
5.2 nM | CC(C)c1c(-c2cnn(CCN)c2)[nH]c2c(C#N)cnn2c1=O [Example 314]
24 nM | Cc1ccc(-c2[nH]c3c(C#N)cnn3c(=O)c2C(C)C)cc1C1CC1 [Example 315]
